# Data published in ChEMBL document CHEMBL1201862, “PubChem BioAssay data set” (2004).
# Activity calls are given as the source filed them.
# Assays:
# [1] = molecular target: T1, Sentrin-specific protease 8 (Homo sapiens, UniProt Q96LD8); assay: inhibition of human SENP8 cleavage activity – biochemical, luminescence, SAR follow-up (AID 504501); assay type: functional
# T1 sequence (Q96LD8 whole entry): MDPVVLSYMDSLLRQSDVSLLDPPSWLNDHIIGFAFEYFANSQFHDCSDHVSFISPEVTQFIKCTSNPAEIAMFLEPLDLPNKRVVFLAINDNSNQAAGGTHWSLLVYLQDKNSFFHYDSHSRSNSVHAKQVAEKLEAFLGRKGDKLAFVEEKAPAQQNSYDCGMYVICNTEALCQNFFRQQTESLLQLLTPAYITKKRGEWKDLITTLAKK
# Caspase-3 = molecular target: T2, Caspase-3 (Homo sapiens, UniProt P42574); assay: SAR Analysis of small molecule inhibitors of Sentrin-specific proteases (SENPs) using a Caspase-3 Selectivity assay. [Related pubchem assays (depositor defined):AID2540, AID2599, AID434973, AID489001]; assay type: functional
# T2 sequence (P42574 whole entry): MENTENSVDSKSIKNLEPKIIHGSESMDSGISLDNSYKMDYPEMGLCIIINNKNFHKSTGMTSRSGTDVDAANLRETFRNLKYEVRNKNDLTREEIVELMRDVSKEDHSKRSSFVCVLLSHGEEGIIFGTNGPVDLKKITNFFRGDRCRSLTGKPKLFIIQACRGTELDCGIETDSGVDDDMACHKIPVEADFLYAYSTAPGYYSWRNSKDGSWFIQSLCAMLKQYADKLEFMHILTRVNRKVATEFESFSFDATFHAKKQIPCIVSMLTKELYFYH
# [2] = molecular target: T3, Sentrin-specific protease 6 (Homo sapiens, UniProt Q9GZR1); assay: SAR Analysis of small molecule inhibitors of Sentrin-specific protease 6 (SENP6) using a Luminescent assay. [Related pubchem assays (depositor defined):AID2582, AID2599]; assay type: functional
# T3 sequence (Q9GZR1 whole entry): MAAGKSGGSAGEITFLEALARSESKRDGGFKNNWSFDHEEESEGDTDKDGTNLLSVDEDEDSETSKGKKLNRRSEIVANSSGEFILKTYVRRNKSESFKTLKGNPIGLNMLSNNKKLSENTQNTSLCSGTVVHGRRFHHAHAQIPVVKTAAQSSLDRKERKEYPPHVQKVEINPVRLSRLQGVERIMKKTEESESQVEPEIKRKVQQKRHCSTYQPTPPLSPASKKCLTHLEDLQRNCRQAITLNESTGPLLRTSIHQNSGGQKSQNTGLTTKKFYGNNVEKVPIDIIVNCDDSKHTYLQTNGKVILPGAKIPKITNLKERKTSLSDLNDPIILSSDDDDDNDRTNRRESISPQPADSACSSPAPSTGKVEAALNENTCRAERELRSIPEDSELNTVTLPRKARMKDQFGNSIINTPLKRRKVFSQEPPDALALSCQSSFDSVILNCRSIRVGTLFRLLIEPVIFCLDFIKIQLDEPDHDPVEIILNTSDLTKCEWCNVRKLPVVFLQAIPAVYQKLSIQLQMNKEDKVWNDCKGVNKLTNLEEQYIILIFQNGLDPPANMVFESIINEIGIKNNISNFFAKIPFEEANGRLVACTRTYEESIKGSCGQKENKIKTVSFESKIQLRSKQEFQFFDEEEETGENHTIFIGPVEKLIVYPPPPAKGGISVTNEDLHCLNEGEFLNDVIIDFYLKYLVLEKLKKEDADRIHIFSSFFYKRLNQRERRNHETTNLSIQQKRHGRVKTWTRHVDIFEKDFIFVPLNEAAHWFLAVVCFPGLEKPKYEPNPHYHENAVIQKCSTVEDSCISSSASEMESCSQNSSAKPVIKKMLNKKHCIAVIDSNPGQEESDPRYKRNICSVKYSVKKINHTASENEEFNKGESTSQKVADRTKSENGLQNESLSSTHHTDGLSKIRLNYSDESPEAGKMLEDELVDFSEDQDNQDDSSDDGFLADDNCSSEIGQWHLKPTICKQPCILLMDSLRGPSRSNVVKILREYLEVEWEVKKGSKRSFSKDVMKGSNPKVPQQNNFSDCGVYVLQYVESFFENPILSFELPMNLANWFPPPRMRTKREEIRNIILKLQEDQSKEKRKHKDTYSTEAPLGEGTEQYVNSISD
# [3] = molecular target: T4, Sentrin-specific protease 7 (Homo sapiens, UniProt Q9BQF6); assay: inhibition of human SENP7 cleavage activity – biochemical, luminescence, SAR follow-up (AID 504497); assay type: functional
# T4 sequence (Q9BQF6 whole entry): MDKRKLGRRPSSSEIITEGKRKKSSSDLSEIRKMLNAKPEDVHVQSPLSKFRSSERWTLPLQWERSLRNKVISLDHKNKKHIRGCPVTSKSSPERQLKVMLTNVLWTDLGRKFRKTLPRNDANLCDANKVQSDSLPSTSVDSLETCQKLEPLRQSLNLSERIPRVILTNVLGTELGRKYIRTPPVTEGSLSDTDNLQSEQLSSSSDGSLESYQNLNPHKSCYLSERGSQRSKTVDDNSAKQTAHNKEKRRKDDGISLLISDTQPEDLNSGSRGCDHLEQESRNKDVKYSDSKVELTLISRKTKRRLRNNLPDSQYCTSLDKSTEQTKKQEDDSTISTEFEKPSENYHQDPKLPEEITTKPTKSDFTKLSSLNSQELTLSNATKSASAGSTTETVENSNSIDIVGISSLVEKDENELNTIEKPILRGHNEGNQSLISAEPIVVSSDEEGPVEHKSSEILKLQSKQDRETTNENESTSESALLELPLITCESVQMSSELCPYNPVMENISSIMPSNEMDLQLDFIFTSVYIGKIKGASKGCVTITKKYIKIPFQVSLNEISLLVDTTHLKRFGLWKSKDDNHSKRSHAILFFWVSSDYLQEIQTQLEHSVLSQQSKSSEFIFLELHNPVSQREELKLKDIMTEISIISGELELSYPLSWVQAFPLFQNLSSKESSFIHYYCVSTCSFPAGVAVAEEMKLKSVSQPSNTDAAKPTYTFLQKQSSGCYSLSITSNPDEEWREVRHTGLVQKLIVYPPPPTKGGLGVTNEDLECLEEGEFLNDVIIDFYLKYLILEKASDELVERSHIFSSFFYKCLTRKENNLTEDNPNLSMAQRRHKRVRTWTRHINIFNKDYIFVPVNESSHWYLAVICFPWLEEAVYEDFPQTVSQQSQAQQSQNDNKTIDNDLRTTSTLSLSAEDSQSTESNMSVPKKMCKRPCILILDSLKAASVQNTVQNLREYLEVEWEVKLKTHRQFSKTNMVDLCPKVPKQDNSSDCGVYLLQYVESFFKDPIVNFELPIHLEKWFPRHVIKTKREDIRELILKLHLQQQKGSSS
# Phospholipase D1 [4] = molecular target: T5, Phospholipase D1 (Homo sapiens, UniProt Q13393); assay: PLD1 purified enzyme concentration response. [Related pubchem assays (depositor defined):AID588854]; assay type: functional
# T5 sequence (Q13393 whole entry): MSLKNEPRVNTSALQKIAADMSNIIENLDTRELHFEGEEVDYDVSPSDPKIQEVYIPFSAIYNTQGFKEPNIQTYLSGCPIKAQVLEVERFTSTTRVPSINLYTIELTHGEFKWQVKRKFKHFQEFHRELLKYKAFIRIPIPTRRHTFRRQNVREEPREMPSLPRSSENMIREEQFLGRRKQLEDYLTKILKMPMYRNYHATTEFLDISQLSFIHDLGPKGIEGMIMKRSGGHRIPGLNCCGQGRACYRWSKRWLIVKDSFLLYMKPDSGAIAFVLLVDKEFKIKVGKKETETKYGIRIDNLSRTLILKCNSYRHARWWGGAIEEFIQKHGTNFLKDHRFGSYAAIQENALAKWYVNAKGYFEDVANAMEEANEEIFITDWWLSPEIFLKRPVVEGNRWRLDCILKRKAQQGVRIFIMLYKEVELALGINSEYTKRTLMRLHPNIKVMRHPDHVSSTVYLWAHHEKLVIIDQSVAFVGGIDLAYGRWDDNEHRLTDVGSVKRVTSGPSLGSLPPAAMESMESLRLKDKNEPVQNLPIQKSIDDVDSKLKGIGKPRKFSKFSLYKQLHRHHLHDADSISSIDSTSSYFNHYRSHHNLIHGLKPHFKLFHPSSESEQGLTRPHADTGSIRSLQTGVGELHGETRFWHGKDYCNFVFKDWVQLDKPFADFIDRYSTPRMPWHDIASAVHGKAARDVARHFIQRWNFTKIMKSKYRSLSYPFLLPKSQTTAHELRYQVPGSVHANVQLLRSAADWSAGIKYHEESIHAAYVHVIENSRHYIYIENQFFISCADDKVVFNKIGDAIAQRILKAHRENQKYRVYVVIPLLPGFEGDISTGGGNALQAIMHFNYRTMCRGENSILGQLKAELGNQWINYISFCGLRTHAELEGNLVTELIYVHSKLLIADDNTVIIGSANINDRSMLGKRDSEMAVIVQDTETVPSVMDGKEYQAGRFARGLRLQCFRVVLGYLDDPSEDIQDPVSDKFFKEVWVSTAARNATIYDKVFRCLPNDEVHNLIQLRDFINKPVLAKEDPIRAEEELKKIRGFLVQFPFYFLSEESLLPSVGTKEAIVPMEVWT
# Phospholipase D2 [5] = molecular target: T6, Phospholipase D2 (Homo sapiens, UniProt O14939); assay: PLD2 purified enzyme concentration response. [Related pubchem assays (depositor defined):AID588854]; assay type: functional
# T6 sequence (O14939 whole entry): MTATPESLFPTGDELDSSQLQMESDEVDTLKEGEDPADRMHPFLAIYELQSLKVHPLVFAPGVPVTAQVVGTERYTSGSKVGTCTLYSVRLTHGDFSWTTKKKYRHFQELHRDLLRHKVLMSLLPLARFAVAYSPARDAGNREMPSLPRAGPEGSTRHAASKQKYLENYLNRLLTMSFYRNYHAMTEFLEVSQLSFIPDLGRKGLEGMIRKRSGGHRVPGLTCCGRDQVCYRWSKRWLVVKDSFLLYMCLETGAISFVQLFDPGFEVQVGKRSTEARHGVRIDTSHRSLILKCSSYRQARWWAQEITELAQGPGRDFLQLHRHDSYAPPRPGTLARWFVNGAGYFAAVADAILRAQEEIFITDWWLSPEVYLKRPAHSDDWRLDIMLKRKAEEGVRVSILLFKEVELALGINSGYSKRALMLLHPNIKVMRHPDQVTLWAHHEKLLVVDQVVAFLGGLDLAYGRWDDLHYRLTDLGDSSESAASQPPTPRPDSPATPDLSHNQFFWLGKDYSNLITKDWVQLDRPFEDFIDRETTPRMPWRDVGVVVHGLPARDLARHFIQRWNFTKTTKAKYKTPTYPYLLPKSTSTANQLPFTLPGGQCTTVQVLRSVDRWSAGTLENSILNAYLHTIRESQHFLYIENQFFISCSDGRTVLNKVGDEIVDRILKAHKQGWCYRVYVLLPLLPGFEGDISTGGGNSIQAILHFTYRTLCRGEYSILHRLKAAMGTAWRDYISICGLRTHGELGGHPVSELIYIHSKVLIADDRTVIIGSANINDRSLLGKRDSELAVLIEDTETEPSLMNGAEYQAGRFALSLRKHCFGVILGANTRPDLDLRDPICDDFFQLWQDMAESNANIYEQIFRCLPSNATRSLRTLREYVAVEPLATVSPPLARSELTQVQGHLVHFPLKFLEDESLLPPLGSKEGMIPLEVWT
# Phospholipase D1 [6] = molecular target: T5, Phospholipase D1; assay: cellular phospholipase D1 inhibition IC50 – cell-based, dose response (AID 602151); assay type: functional;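 also: cellular PLD1 assay in Calu-1 cells stimulated with PMA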
# Phospholipase D2 [7] = molecular target: T6, Phospholipase D2; assay: cellular phospholipase D2 inhibition IC50 – cell-based, dose response (AID 602147); assay type: functional;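 also: cellular assay in HEK293 cells overexpressing GFP-tagged PLD2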
# [8] = molecular target: FAD-linked sulfhydryl oxidase ALR (Homo sapiens, UniProt P55789); assay: ALR-catalysed DTT oxidation blockers – biochemical, H2O2 detection, luminescence, cherry-pick, dose response (AID 493248)
# FAD-linked sulfhydryl oxidase ALR, sequence (P55789 whole entry): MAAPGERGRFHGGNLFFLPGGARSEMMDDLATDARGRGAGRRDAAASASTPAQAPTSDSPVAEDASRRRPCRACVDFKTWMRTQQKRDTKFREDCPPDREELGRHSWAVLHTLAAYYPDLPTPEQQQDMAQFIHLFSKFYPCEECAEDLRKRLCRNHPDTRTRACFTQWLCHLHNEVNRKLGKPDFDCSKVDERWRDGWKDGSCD
# HEK293 = assay: cells; assay type: functional, cell-based; settings: Homo sapiens
# [9] = molecular target: Nuclear receptor subfamily 0 group B member 1 (Homo sapiens, UniProt P51843); assay: Luminescence-based cell-based high throughput dose response assay for inhibitors of the orphan nuclear receptor subfamily 0, group B, member 1 (DAX1; NR0B1). [Related pubchem assays (depositor defined):AID504766, AID504790]; assay type: functional
# Nuclear receptor subfamily 0 group B member 1, sequence (P51843 whole entry): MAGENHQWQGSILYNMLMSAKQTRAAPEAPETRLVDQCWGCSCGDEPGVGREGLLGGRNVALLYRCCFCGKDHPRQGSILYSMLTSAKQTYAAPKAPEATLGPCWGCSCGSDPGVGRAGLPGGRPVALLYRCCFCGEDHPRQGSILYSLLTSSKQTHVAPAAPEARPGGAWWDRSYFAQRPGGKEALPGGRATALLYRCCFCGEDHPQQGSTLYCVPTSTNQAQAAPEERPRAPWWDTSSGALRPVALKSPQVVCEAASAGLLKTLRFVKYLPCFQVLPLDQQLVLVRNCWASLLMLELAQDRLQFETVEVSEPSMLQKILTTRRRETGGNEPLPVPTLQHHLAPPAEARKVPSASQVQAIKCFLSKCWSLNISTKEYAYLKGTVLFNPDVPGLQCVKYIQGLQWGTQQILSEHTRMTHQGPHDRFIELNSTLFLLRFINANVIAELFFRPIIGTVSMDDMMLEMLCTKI
# [10] = decrease of insulin promoter-GFP reporter – imaging, high-content screening, mouse beta cells (AID 1628); assay type: functional; settings: MIN6
# [11] = MIN6 cell viability loss – mouse insulinoma, cytotoxicity control, dose response (AID 2122); assay type: functional;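 also: confirmatory high-throughput counterscreen run to flag cytotoxic compounds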
compound,measurement,setting,value
CCOc1ccc2nc(N(Cc3cccnc3)C(=O)c3ccc(Cl)s3)sc2c1,IC50,[1],> 99 µM (inactive)
same,IC50,Caspase-3,> 99 µM (inactive)
same,IC50,[2],> 99 µM (inactive)
same,IC50,[3],> 99 µM (inactive)
O=C(NCCN1CCC2(CC1)C(=O)NCN2c1ccccc1)c1cc2ccccc2s1,IC50,Phospholipase D1 [4],4 µM (active)
same,IC50,Phospholipase D2 [5],0.092 µM (active)
C[C@@H](CN1CCC(n2c(=O)[nH]c3ccccc32)CC1)NC(=O)C1C[C@H]1c1ccccc1 (some centres not stated),IC50,Phospholipase D1 [6],0.088 µM (active)
same,IC50,Phospholipase D2 [7],14.5 µM (active)
O=C(NCCN1CCC2(CC1)C(=O)NCN2c1ccc(F)cc1)c1cnc2ccccc2c1,IC50,Phospholipase D1 [4],20 µM (active)
same,IC50,Phospholipase D2 [5],0.14 µM (active)
C[C@@H](CN1CCC(n2c(=O)[nH]c3ccccc32)CC1)NC(=O)c1cc2ccccc2[nH]1,IC50,Phospholipase D1 [6],0.001 µM (active)
same,IC50,Phospholipase D2 [7],0.066 µM (active)
COc1ccc(/C=N/Nc2nc3ccccc3[nH]2)c(OC)c1OC,AC50,[8],0.278 µM (active)
same,IC50,HEK293,> 67.5 µM (inactive)
same,IC50,[9],> 67.5 µM (inactive)
Cc1c(Cl)cccc1NC(=O)CCC(=O)N/N=C/c1ccc[nH]1,IC50,[10],2.31 µM (active)
same,IC50,[11],2.36 µM (active)
